Assay results as given in US20210017607A1, “Methods of Predicting Responsiveness to Cancer Therapies” (The University of Chicago, priority 2019, published 2021).
≈ marks a conversion by molar mass, not a printed value. Where two headings read alike, the source gives them in different places.

Legend:
[1] = IC90 concentrations stated for in vitro/ex vivo drug treatments; conditions: for IC90: read-out: IC90 concentration
ID8 ovarian cancer cells = assay: ID8 cells in vitro STING pathway activation (western, ImageStream, ELISA); type: cell-based, mouse; conditions: for STING pathway activation within ID8-PTEN^−/− cells / IFNB1 levels in combination with STING agonist DMXAA, ID8-PTEN^−/− cells: 36 hours; for IFNB1 levels in combination with STING agonist DMXAA, ID8-PTEN^−/− cells: ELISA
Description: FIGS. 56A and 56B. […] (56A) PTEN-proficient (PTEN^+/+) and deficient (PTEN^−/−) ID8 ovarian cancer cells were treated with DMXAA (50 μg/mL) for 0, 1, 6, 12, 24 and 36 hours. Nuclear extracts were probed for localization of p-IRF3 and p-NF-kB, markers of STING pathway activation. n=1 independent experiment. (56B) Wild-type (PTEN^+/+) and PTEN-deficient (PTEN^−/−) Myc-CAP (prostate) and ID8 (ovarian) cancer cells were treated with DMXAA (50 μg/mL) for 36 hours. The supernatants were analyzed by ELISA for IFN-β1 release. n=3 independent experiments.
FIGS. 57A-57C. […] PTEN-proficient (PTEN+/+) and deficient (PTEN−/−) ID8 ovarian cancer cells were treated with DMXAA (50 μg/mL) for 0, 12, 24 and 36 hours. (57A) The nuclear localization of p-IRF3 and p-NFkB was analyzed by ImageStream. The overlap of the two generates a white color that scores for nuclear localization of pIRF3. (57B) Graphical representation of nuclear localization of pIRF3 and p-NF-kB at 12, 24, and 36 hours after DMXAA treatment, relative to untreated groups in ID8 wild-type and PTEN^−/− cells. n=3 independent experiments.
FIGS. 58A and 58B. […] (58A) PTEN-proficient (PTEN^+/+) and deficient (PTEN^−/−) ID8 ovarian cancer cells were treated with IC90 concentrations of pan-PI3K inhibitors, either copanlisib (100 nM) or BKM120 (1000 nM) for 36 hours in presence or absence of STING agonists, DMXAA (50 μg/mL, 1 hour at the end of experiment). The activation status of both PI3K and STING signaling pathways were probed with the indicated antibodies by western blotting. n=2 independent experiments. (58B) Cells were treated as described in (58A), with the exception that concomitant DMXAA treatment was carried out for 36 hours. The supernatants were analyzed by ELISA for IFN-β1 release. n=3 independent experiments.
Cytokine Array/IFNβ1 ELISA. Supernatants from untreated or drug treated cancer cell lines and bone marrow derived macrophages were collected at 36 hours and spun down at 2000×g for 5 min at 4° C. to remove cellular debris. These clear supernatants were processed for detection of Type I Interferon by ELISA (LEGEND MAX™ Mouse IFNβ1 ELISA, Biolegend®) or for determination of a panel of cytokines/chemokines using LEGENDplex™ array (Mouse Anti-Virus Response Panel, Biolegend®) as per instructions in protocol provided.
Western blotting. RIPA buffer (Boston BioProducts) supplemented with protease (Roche®) and HALT phosphatase inhibitor cocktail (Thermo Scientific®) was used for preparation of total cell lysates. For western blotting, the following antibodies were used from Cell Signaling Technology®: Polyclonal rabbit anti-mouse-, phospho-AKT, total AKT, c-GAS, STING, phospho-IRF3, total IRF3, phospho-TBK1, total TBK1, PTEN, phospho NF-kB, total NF-kB, p53, lamin B1, β-actin, alpha-tubulin, and GAPDH. Images of scanned blots were processed using ADOBE Photoshop.
Image Stream Analysis. PTEN-proficient and deficient ID8 ovarian cancer cells were treated with DMXAA (50 ug/mL) for 0, 12, 24, and 36 hours. After termination at endpoints, cells were stained with primary antibodies—anti-mouse p-IRF3 (Cell Signaling Technology®), p-NFkB (Cell Signaling Technology®), followed by incubation with flurochrome tagged secondary antibodies and DAPI. Images of nuclear localization of p-IRF3 and p-NF-kB within single cells were acquired using ImageStreamg®^x Mark II (Amnis®) and data obtained was analyzed using IDEAS® software.

[2] = FIG. 38, Myc-CAP-PTEN+/+ and PTEN−/− tumor suspensions
[3] = FIG. 50, Myc-CAP-PTEN^−/− tumor suspensions
[4] = FIG. 58, ID8 ovarian cancer cells

SMILES | IC90 concentration [1, 2] | IC90 concentration [1, 3] | STING pathway activation after PTEN knockdown (ID8 ovarian cancer cells; DMXAA 50 μg/mL) | IRF3 translocation to the nucleus after PTEN knockdown (ID8 ovarian cancer cells; DMXAA 50 μg/mL, 0-36 hours) | IC90 [1, 2] | IC90 [1, 4] | STING pathway activation within ID8-PTEN^−/− cells (ID8 ovarian cancer cells) | IFNB1 levels in combination with STING agonist DMXAA, ID8-PTEN^−/− cells (ID8 ovarian cancer cells) | IC90 [1, 3] | IC90 ([1]; Myc-CAP-PTEN^−/− cells in vitro (FIG. 35))
Cc1ccc2c(=O)c3cccc(CC(=O)O)c3oc2c1C [DMXAA, 5,6-Dimethylxanthenone-4-acetic Acid] | 50 µg/mL (≈ 177 µM) | 50 µg/mL (≈ 177 µM) | abrogates STING pathway activation | abolishes IRF3 translocation to the nucleus |  |  |  |  |  | 
Nc1cc(C(F)(F)F)c(-c2cc(N3CCOCC3)nc(N3CCOCC3)n2)cn1 [buparlisib] |  |  |  |  | 1000 nM | 1000 nM | partially restore STING pathway activation | unable to rescue IFNB1 levels |  | 
COc1c(OCCCN2CCOCC2)ccc2c1N=C(NC(=O)c1cnc(N)nc1)N1CCN=C21 [copanlisib] |  |  |  |  |  | 100 nM | partially restore STING pathway activation | unable to rescue IFNB1 levels | 500 nM | 100 nM
CNCc1ccc(-c2[nH]c3cc(F)cc4c3c2CCNC4=O)cc1 [rucaparib] |  |  |  |  | 500 nM |  |  |  |  | 
